Paper PMC7165133, “Functional expression and characterization of cinnamic acid 4-hydroxylase from the hornwort Anthoceros agrestis in Physcomitrella patens” (Plant Cell Reports, 2020)
Blank lines part the entries; values can stand above or below the molecule they belong to.

Legend:
[1] = test system: T1, Physcomitrella patens NADPH:cytochrome P450 reductase(s) (CPR or POR), in Pp_AaC4H; assay: HPLC of 4-coumaric acid formed (coupled C4H reaction), Michaelis-Menten fit; type: biochemical, Physcomitrium patens; conditions: 400 µM cinnamic acid, pH 7.0, 25 °C, 5 min; crude extract; NADPH oxidised by CPR, read-out via C4H; read-out: apparent Km
T1 construct: native reductase(s) of the host moss, four putative CPR genes; crude protein extract of moss expressing C-terminally 6xHis-tagged AaC4H; with trans-cinnamate 4-monooxygenase (Anthoceros agrestis)

[2] = test system: T2, Physcomitrella patens NADPH:cytochrome P450 reductase(s) (CPR or POR), in Pp_WT; assay: as above; type: biochemical, Physcomitrium patens; conditions: 400 µM cinnamic acid, pH 7.0, 25 °C, 5 min; crude extract of untransformed moss; NADPH oxidised by CPR, read-out via C4H; read-out: apparent Km
T2 construct: native reductase(s), four putative CPR genes; crude protein extract of untransformed moss with its own C4Hs; with trans-cinnamate 4-monooxygenase; trans-cinnamate 4-monooxygenase

Pp_WT (PpC4Hs) = test system: T3, Pp_WT (PpC4Hs); assay: HPLC of 4-coumaric acid formed, Michaelis-Menten fit; type: biochemical, Physcomitrium patens; conditions: 5 mM NADPH, pH 7.0, 25 °C, 5 min; crude extract of untransformed moss; read-out: apparent Km
T3 construct: gene PpC4H_1; native, crude protein extract of untransformed moss; six putative C4H genes, only two named in the main text; with NADPH--cytochrome P450 reductase

[3] = substrate: O=C(O)/C=C/c1ccccc1; assay: cells, lysate or membranes; conditions: 5 mM NADPH, pH 7.0, 25 °C, 5 min, crude extract with endogenous PpC4H background

Km [1]: 88 ± 19.5 µM
Km [2]: 92.3 ± 10.8 µM
Molecule: NC(=O)C1=CN([C@@H]2O[C@H](COP(=O)(O)OP(=O)(O)OC[C@H]3O[C@@H](n4cnc5c(N)ncnc54)[C@H](OP(=O)(O)O)[C@@H]3O)[C@@H](O)[C@H]2O)C=CC1 [NADPH]

Km (Pp_WT (PpC4Hs)): 25.1 ± 8.9 µM
Molecule: O=C(O)/C=C/c1ccccc1 [t-cinnamic acid]

B1: Pp_AaC4H (AaC4H, CYP73A260) (Anthoceros agrestis) (protein)
chain: MASGETTLGSTNTMFLDALSILEALLATIAVLWLVKQVTSSRLKPPPGPLALPILGNWLQVGDDLNHRNLSDLAKKYGDIFLLRMGQRNVVVVSSPELAKEVLLTQGVEFGSRTRNVVFDIFTGKGQDMVFTVYGEHWRRMRRIMTVPFFTSKVVQQSRVAWEDETDRVIADLKTNPKYAAASTTGVVLRQRLQLLMYNTMYRLMFDRRFESEDDPLFVQLKALNGERSRLAQSFEYNYGDFIPVLRPLLRNYLKICQDIKDRRLALFKNHFLDERKKLLDTKRSQTAASTGKCAIDHILDAQKNGKINEDNVLYIVENINVAAIETTLWSMEWGLAELVNNPDIQQKVREELDHVLGKGTPLTEPDIQAGKLSYLAAVVKETLRLHMAIPLLVPHMNLHQARLGGYDIPAESKVLVNAWYLANNPALWKDPETFRPERFLEGDKGAEPNGTDFRFLPFGVGRRSCPGIILALPLLNLVLGRLVQSFLLTCPPGVEKLDLSEKGGQFSLHIAAHSNIVVKPRPDM
Km [3]: 17.3 ± 5.0 µM
